How the values were obtained:
[1] = target: Glutamate receptor ionotropic, NMDA 2B (Rattus norvegicus, UniProt P35439+Q00960); assay: Displacement of [3H]racemic CP-101606 from rat NR2B receptor in P2 membrane; type: cell membranes
Cytochrome P450 2D6 = Cytochrome P450 2D6 (Homo sapiens, UniProt P10635); assay: Displacement of [3H]bufuralol from CYP2D6; type: ADME
[2] = target: Voltage-gated inwardly rectifying potassium channel KCNH2 (Homo sapiens, UniProt Q12809); assay: Displacement of [3H]bufuralol from hERG channel expressed in HEK293 cells
[3] = Ratio of Half life of compound in human liver microsome HHM0168 to half life in human liver microsome HHM0168 in presence of CYP2D6; type: ADME; conditions: microsomes
Rattus norvegicus = assay: Effect on haloperidol catalepsy in po dosed rat assessed as latency to paw withdrawal; type: functional; conditions: read-out: MED
hERG (KCNH2) = hERG (KCNH2) (Homo sapiens, UniProt Q12809); assay: Blockade of hERG channel expressed in HEK293 cells by electrophysiological method; type: cell-based; conditions: HEK293 cells expressing hERG channel
Chain of hERG (KCNH2) (Q12809 whole entry): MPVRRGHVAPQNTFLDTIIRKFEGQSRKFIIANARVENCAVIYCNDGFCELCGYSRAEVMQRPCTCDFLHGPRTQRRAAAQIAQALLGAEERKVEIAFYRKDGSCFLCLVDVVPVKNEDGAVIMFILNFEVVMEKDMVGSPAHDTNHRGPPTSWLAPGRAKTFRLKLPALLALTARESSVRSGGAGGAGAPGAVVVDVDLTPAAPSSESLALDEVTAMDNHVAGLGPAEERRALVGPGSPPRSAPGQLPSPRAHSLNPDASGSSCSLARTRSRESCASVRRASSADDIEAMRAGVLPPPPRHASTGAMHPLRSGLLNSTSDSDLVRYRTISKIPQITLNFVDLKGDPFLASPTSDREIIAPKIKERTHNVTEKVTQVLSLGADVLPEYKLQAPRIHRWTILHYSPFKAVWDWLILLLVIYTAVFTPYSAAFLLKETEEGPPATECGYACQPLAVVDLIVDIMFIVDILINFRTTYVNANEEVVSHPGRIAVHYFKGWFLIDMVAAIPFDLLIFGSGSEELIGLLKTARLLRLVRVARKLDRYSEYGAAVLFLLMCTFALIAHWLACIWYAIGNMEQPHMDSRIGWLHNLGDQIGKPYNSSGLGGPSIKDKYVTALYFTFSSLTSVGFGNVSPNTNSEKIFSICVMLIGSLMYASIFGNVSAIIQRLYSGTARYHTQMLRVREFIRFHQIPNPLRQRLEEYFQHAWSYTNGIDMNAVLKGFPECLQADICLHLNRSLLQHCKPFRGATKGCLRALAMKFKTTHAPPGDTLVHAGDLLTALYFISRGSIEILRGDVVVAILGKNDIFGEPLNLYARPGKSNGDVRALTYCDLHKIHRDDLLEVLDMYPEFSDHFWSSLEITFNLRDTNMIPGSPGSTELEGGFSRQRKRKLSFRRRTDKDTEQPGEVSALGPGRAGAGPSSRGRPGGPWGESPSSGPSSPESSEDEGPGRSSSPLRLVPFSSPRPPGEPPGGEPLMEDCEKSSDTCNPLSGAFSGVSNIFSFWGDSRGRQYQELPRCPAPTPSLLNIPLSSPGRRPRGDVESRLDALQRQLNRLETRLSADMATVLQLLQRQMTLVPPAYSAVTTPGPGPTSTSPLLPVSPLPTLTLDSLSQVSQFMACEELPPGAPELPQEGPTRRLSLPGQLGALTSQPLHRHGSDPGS

Chain of Cytochrome P450 2D6 (P10635 whole entry): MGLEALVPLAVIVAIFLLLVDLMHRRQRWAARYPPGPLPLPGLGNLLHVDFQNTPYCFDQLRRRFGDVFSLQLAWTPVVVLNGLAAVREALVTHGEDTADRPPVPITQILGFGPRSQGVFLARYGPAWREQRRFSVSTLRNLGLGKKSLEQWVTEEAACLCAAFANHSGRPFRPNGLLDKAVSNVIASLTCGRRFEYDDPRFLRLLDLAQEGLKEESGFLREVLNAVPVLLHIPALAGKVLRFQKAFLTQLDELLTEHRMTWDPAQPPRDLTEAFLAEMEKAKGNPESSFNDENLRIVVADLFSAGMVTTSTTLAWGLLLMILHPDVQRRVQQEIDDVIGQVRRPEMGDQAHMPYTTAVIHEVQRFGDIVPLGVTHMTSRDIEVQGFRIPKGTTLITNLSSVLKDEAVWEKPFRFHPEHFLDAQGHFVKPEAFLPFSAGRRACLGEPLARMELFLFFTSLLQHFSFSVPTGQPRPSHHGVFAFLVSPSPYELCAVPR
Chain of Glutamate receptor ionotropic, NMDA 2B (Q00960 whole entry, one chain of several): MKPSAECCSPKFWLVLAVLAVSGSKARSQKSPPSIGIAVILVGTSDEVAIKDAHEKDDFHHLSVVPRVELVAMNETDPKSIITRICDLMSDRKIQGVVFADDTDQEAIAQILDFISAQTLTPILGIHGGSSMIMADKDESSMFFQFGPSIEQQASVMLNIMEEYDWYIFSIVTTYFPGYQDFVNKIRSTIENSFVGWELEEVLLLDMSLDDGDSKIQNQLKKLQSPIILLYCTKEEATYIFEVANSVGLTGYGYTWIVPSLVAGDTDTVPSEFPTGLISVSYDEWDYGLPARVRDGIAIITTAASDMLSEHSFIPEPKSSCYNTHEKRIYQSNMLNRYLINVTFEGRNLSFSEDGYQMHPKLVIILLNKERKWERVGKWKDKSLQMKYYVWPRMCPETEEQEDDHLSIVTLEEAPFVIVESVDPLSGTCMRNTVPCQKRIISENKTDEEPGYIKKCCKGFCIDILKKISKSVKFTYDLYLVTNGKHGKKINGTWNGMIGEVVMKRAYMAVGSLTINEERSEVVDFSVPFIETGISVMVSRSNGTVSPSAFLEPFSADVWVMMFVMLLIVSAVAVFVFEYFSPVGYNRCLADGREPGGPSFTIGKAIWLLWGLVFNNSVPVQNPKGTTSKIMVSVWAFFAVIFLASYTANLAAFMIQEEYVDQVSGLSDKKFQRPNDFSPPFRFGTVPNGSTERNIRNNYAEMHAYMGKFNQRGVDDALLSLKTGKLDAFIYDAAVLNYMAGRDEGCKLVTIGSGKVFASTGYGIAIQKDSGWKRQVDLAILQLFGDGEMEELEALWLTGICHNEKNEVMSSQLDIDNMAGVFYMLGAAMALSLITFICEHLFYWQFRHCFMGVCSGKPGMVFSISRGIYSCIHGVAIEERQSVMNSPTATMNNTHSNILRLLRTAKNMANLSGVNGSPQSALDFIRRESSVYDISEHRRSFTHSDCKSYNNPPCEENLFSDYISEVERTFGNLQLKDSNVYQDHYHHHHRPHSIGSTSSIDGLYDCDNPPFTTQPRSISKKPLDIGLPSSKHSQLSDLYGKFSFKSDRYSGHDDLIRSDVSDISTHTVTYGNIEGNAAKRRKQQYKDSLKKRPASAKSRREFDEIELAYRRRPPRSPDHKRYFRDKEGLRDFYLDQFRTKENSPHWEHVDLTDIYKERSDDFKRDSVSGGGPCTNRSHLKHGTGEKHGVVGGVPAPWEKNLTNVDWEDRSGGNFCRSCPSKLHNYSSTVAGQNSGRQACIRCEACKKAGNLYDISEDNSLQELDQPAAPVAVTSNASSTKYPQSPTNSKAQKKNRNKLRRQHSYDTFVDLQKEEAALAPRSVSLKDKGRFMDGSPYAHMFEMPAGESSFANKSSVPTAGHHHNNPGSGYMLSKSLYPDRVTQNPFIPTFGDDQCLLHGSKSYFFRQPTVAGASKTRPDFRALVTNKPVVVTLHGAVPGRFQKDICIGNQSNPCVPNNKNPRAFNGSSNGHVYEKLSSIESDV
Chain of Voltage-gated inwardly rectifying potassium channel KCNH2 (Q12809 whole entry): as the sequence (Q12809 whole entry) above

Compound	IC50 [1] [nM]	IC50 (Cytochrome P450 2D6) [nM]	IC50 [2] [nM]	Ratio [3]	minimal effective dose (Rattus norvegicus) [mg/kg]	IC20 (hERG (KCNH2)) [nM]
CC(C(O)c1ccc(O)c(-c2ccccc2)c1)N1CCC(O)(c2ccc(F)cc2)CC1 (racemic)	570	8400				
CC(C(O)c1ccc2[nH]c(=O)oc2c1)N1CCC(O)(c2ccc(F)cc2)CC1 (racemic)	41	11000	2600	1		
CC(C(O)c1ccc2c(c1)OCC(=O)N2)N1CCC(O)(c2ccc(F)cc2)CC1 (racemic)	8.7	> 30000	1600	1		
CC(C(O)c1ccc2c(c1)CNC(=O)N2)N1CCC(O)(c2ccc(F)cc2)CC1 (racemic)	9.1	> 30000	7400	1		
CC(C(O)c1ccc2c(c1)CN(C)C(=O)N2)N1CCC(O)(c2ccc(F)cc2)CC1 (racemic)	14	> 30000	3100	1		
CC(C(O)c1ccc2c(c1)CCC(=O)N2)N1CCC(O)(c2ccc3c(c2)COCC3)CC1 (racemic)	15		16000		> 30	
COc1cccc(C2(O)CCN(C(C)C(O)c3ccc4c(c3)CCC(=O)N4)CC2)c1 (racemic)	8.3				30	
O=C1CCc2cc(C(O)CN3CCC(O)(c4cccc(F)c4)CC3)ccc2N1 (racemic)	4.5		13000			
Cc1cc(C(O)C(C)N2CCC(O)(c3ccc(F)cc3)CC2)ccc1O (racemic)		< 300				
Cc1cc(O)ccc1C(O)C(C)N1CCC(O)(c2ccc(F)cc2)CC1 (racemic)	16	3900		> 4.5		
CC(C(O)c1ccc(O)c(C(C)(C)C)c1)N1CCC(O)(c2ccc(F)cc2)CC1 (racemic)	> 5000					
Cc1ccc(C2(O)CCN(C(C)C(O)c3ccc4c(c3)CCC(=O)N4)CC2)cc1 (racemic)	9.1					
CC(C(O)c1ccc2c(c1)CCC(=O)N2)N1CCC(O)(c2cccc(COc3ccccc3)c2)CC1 (racemic)	6.3					
CC(C(O)c1ccc2c(c1)CCC(=O)N2)N1CCC(O)(c2ccc(Cl)cc2)CC1 (racemic)	6.6				10	
CC(C(O)c1ccc(O)c(Cl)c1)N1CCC(O)(c2ccc(F)cc2)CC1 (racemic)	5.6	3500		1.6		
CC(C(O)c1ccc2c(c1)COC(=O)N2)N1CCC(O)(c2ccc(F)cc2)CC1 (racemic)	18	> 30000	2400	1		
CC(C(O)c1ccc2c(c1)CCC(=O)N2)N1CCC(O)(c2ccc(F)cc2)CC1 (racemic)	11	> 30000				
CC(C(O)c1ccc2c(c1)CCC(=O)N2)N1CCC(O)(c2cccc(F)c2)CC1 (racemic)	10				10	
O=C1CCc2cc(C(O)CN3CCC(O)(c4cccc(F)c4)CC3)ccc2N1 (single isomer, unassigned; (+))	6.8		9800			
O=C1CCc2cc(C(O)CN3CCC(O)(c4cccc(F)c4)CC3)ccc2N1 (single isomer, unassigned; (-))	5		21000			1100
C[C@@H]([C@@H](O)c1ccc(O)cc1)N1CCC(O)(c2ccccc2)CC1 [TRAXOPRODIL]			10000			150

Reference: ChEMBL document CHEMBL1139807, “Discovery of (-)-6-[2-[4-(3-fluorophenyl)-4-hydroxy-1-piperidinyl]-1-hydroxyethyl]-3,4-dihydro-2(1H)-quinolinone--a potent NR2B-selective N-methyl D-aspartate (NMDA) antagonist for the treatment of pain” (Bioorg Med Chem Lett, 2007)
